Measured values reported in patent publication US20100074884A1, “INHIBITION OF NEURONAL DAMAGE” (DUSKA SCIENTIFIC CO., priority 2005, published 2010).

Tests used:
RGCs [1] = experiment: Application of ATP or P2X7 agonist to isolated rat retinas, RGC damage; format: cell-based
Source text: (§1) Adult animals were decapitated and the retinas quickly dissected, flattened onto nitrocellulose filters, and maintained in oxygenated ACSF. Individual RGCs were labeled by shooting 1.3 μm tungsten particles coated with Oregon Green 488 conjugated dextran (Molecular Probes, Inc., Eugene, Oreg.) into the retina using a gene gun (Bio-Rad Laboratories, Hercules, Calif.; Kettunen, et al. (2002) J. Neurosci. Methods 119:37-43). Individual RGCs were imaged by placing the retinas in oxygenated ACSF within a custom-made 4 ml observation chamber on the stage of a Zeiss Axioplan fluorescence microscope equipped with a black and white CCD camera (Chroma DTA, Pisa, Italy). Observations were performed at room temperature (25-28° C.). A 40× Olympus immersion objective (N.A. 0.80) was used and excitation light was kept below 10% of its maximum intensity. Less than 5 RGCs per retina were analyzed to minimize light exposure. Loss of membrane integrity was assessed by adding 1.5 μM PI to the ACSF for 1 minute. Exposure of phospatidylserine on the outer membrane leaflet was evidenced by a 20 minute incubation in ACSF containing 3 μg/ml Cy3-Annexin V. In some experiments, RGCs were preincubated with oxidized-ATP (oATP) for 2 hours or with Brilliant BlueG (BBG) for 30 minutes prior to imaging.
Incubation of isolated rat retinas in 1 mM ATP induced the same effects obtained with repeated pressure increments, causing cell blebbing and uptake of PI in all the RGCs tested (35/35 tested) within 1 hour, except in α-type RGCs (0/15). The same effects were obtained applying the potent P2X7 receptor agonist 2′,3′-benzoyl-4-benzoyl-ATP (BzATP; 0.1 mM; 10/10 non-α-RGCs).

RGCs [2] = experiment: Pressure-induced RGC damage in isolated rat retinas (pressure controlled incubation, imaging of living RGCs); format: cell-based; settings: for signs of pressure induced RGC damage: 7×90 (7 one-minute pulses at 90 mm Hg, then 1 hour at 12 mm Hg), 30 U/ml apyrase, 300 μM oATP or 0.5 μM BBG
Protocol: Pressure controlled incubation: A free-standing bioreactor chamber was used for incubation of living retinas (e.g., rat retinas) in artificial cerebrospinal fluid (ACFS; Stacy et al. (2003) J. Comp. Neurol. 456:154-166) under controlled temperature (33±0.5° C.; pH 7.4±0.1), and hydrostatic pressure conditions (10-90 mm Hg, resolution 2 mm Hg; Previti, et al. (2002) IEEE-EMBS Special Topic conference on Molecular, Cellular and Tissue Engineering, 1:157-158). Rat retinas were allowed to stabilize at 12 mm Hg for 5 minutes, and 1 minute pressure increments were applied, reaching a peak value in less than 20 seconds. Consecutive pressure transients were separated by 1 minute at 12 mm Hg. Hydrostatic pressure and pH were regulated by electronically controlled air/CO2 admission in the incubator chamber.
Imaging living RGCs: Experiments were performed on Long Evans rats according to the ARVO and national regulation on animal experimentation. All chemicals were obtained from Sigma (St. Louis, Mo.) unless otherwise specified.
as §1
RGC were incubated with the following agents: 30 U/ml apyrase (an enzyme that degrades extracellular ATP; North, supra); 300 μM oATP (an irreversible blocker of P2X receptors; North, supra); or 0.5 μM BBG (a selective and reversible inhibitor of rat P2X7 receptors; North, supra).

RGCs [3] = experiment: Prevention of ATP-induced RGC damage in isolated rat retinas by P2X blockers; format: cell-based; settings: 2 hour preincubation in ACSF containing 300 μM oATP or 0.5 μM BBG
Source text: as §1, with “In some experiments, RGCs were preincubated with oxidized-ATP (oATP) for 2 hours or with Brilliant BlueG (BBG) for 30 minutes prior to imaging.” left out
Incubation of isolated rat retinas in 1 mM ATP induced the same effects obtained with repeated pressure increments, causing cell blebbing and uptake of PI in all the RGCs tested (35/35 tested) within 1 hour, except in α-type RGCs (0/15). […]

RGCs [4] = experiment: Pressure transients in vivo, PI staining of cells in the ganglion cell layer; design: species or system rat; settings: apyrase 30 U/ml intraocularly 5 minutes before pressure; 2 minutes at 50 mm Hg; retinas isolated after one hour
Protocol: Pressure transients in vivo: Adult Long Evans rats were deeply anaesthetized by intraperitoneal injection with Avertine (10 ml/kg body weight, 3.3% tri-bromo-ethanol, 2% tertiary amyl-alcohol in saline) and their right eyes were incannulated with a 30 Gauge needle connected to a pressure apparatus, which was a column of ACSF held at appropriate height. Eye pressure was increased to 50 mm Hg for 2 minutes by switching on the connection between the needle and the column of ACSF. A piezo-resistive pressure sensor (RS Electronics) controlled pressure values and line tightness. […] After pressure application, the animals were returned to their cages for recovery. Retinas were isolated after one hour. Control eyes were incannulated, but no pressure transient was applied. To analyze the effects of blocking eATP in vivo, 2 μl apyrase (30 U/ml intraocular concentration) were injected intraocularly 5 minutes before pressure application. To evaluate cell damage, PI labeled cells were imaged across the retinal area in 10 evenly spaced (370×250 μm^2) sample fields per retina. This dye permits assessment of membrane integrity, as cells with reduced membrane integrity are permeable to and become stained with the dyes. Retina dissection, histological and immunocytochemical treatments for long term analysis were performed as described (Galli-Resta et al. (1997) J. Neurosci. 17:7831-7838). […]

RGC light response = experiment: Extracellular electrophysiological recordings in the optic tract, RGC light response after IOP transient; format: in vivo, rat
Protocol: Extracellular electrophysiological recordings: Experimental procedures for extracellular electrophysiological recordings are as described (Caleo et al. (2003) J. Neurosci. 23(1):287-296.). Briefly, rats aged between P25 and P30 were anesthetized with urethane (20% solution in saline; 0.7 ml/100 g of body weight, i.p.; Sigma) and placed in a stereotaxic frame. Both eyes were fixed by means of adjustable metal rings surrounding the external portion of the eye bulb. Body temperature was continuously monitored and maintained at 37° C. by a thermostat-controlled electric blanket. […]
Experiments were conducted to determine (1) whether intraocular injection of apyrase had any deleterious effects on RGC firing activity and light response, and (2) whether intraocular injection of apyrase had any effect on RGC light response recovery following a transient IOP elevation in vivo. Multi-unit spike activity evoked by a light flash was recorded in the optic tract at five minute intervals before and after an IOP pulse at 90 mmHg for 1 minute. […] Quantifying response as the average firing rate in the interval 0-2 seconds after flash onset, the average maximal response decrement was 80±16%; N=15, and the average time needed to recover at least 85% of the initial response was 32±4 minutes after the IOP spike. […]

[5] = two hours after ATP application

## Nc1ncnc2c1ncn2[C@@H]1O[C@H](COP(=O)(O)OP(=O)(O)OP(=O)(O)O)[C@@H](O)[C@H]1O [ATP, adenosine 5′-triphosphate]
RGCs [1]; 1 mM ATP, within 1 hour, RGCs other than α-type
  cell blebbing and uptake of PI, affected/tested RGCs: 35/35
RGCs [1]; 1 mM ATP, within 1 hour, α-type RGCs
  cell blebbing and uptake of PI, affected/tested α-type RGCs: 0/15
RGCs [1]; [5]
  cell soma shrinkage or fragmentation, RGCs: 10/10
  phosphatidylserine exposure on the external membrane (Annexin V binding), RGCs: 7/7

## CCOc1ccc(Nc2ccc(/C(=C3C=C/C(=[N+](/CC)Cc4cccc(S(=O)(=O)[O-])c4)C=C/3C)c3ccc(N(CC)Cc4cccc(S(=O)(=O)O)c4)cc3C)cc2)cc1 [BBG, Brilliant BlueG]
RGCs [2]
  signs of pressure induced RGC damage: prevented all signs of pressure induced RGC damage
RGCs [3]
  ATP-induced RGC damage, damaged/tested non-α-RGCs: 0/15

## Nc1ncnc2c1ncn2[C@@H]1O[C@H](COP(=O)(O)OP(=O)(O)OP(=O)(O)O)[C@@H](OC(=O)c2ccc(C(=O)c3ccccc3)cc2)[C@H]1O [BzATP, 2′,3′-benzoyl-4-benzoyl-ATP]
RGCs [1]; 0.1 mM BzATP
  cell blebbing and uptake of PI, affected/tested non-α-RGCs: 10/10

## Nc1ncnc2c1ncn2[C@@H](C=O)O[C@@H](C=O)COP(=O)(O)OP(=O)(O)OP(=O)(O)O [oATP, oxidized-ATP]
RGCs [2]
  signs of pressure induced RGC damage: prevented all signs of pressure induced RGC damage
RGCs [3]
  ATP-induced RGC damage, damaged/tested non-α-RGCs: 0/20

## apyrase
RGCs [2]
  signs of pressure induced RGC damage: prevented all signs of pressure induced RGC damage
RGCs [2]; in the presence of apyrase 30 U/ml
  blebbing or permeability to PI when pressure applied: no blebbing or permeability to PI was observed
RGCs [4]
  pressure-induced RGC damage in vivo (PI staining): totally prevented
RGC light response; apyrase 30 U/ml intraocularly
  spike activity before pressure application: not significantly altering
RGC light response; apyrase 30 U/ml intraocularly 1-3 hours before IOP pulse at 90 mmHg for 1 minute, N=8
  average response recovery-time (at least 85% of initial response): 11.2 ± 2.6 min
